Patent publication US8735398B2 (Bristol-Myers Squibb Company, priority 2009, dated 2014)
Like-named read-outs stand apart in the source and are kept apart here.

System: HCV 1b genotype
Experiment: HCV replicon assay (HCV-neo replicon cells, wild-type)
Format: cell-based, Hepatitis C virus
Settings: HCV 1b genotype replicon
How it was run: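 Inhibition was tested in replicon-bearing cells, both wild-type HCV-neo and lines with NS5A resistance substitutions, using the O'Boyle et al. 2005 replicon method or luciferase-reporter formats.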

[1] = class symbol, read-out: EC50 Range against HCV 1b
[2] = Hepatitis C virus, class symbols, read-out: EC50 Range against HCV 1b
[3] = Hepatitis C virus, class symbol, read-out: EC50 Range against HCV 1b
[4] = Hepatitis C virus, read-out: EC50 1b

Compound | EC50 [3] [nM] | also measured
Cn1ccnc1C(O)C(=O)N1CCC[C@H]1C(=O)Nc1ccc(-c2cnc(-c3ccc(NC(=O)[C@@H]4CCCN4C(=O)C(O)c4nccn4C)cc3)o2)cc1 (stereo partly drawn) [Example D-11, (2S,2′S)-N,N′-(4,4′-(oxazole-2,5-diyl)bis(4,1-phenylene))bis(1-(2-hydroxy-2-(1-methyl-1H-imidazol-2-yl)acetyl)pyrrolidine-2-carboxamide)] |  | EC50 [1]: 1000 to 10000 nM; EC50 (read-out: EC50 1b): 2090 nM
O=C(Nc1ccc(-c2cnc(-c3ccc(NC(=O)[C@@H]4CCCN4C(=O)c4ccccc4F)cc3)o2)cc1)[C@@H]1CCCN1C(=O)c1ccccc1F [XY-10, (2S,2′S)-N,N′-(1,3-oxazole-2,5-diyldi-4,1-phenylene)bis(1-(2-fluorobenzoyl)-2-pyrrolidinecarboxamide)] |  | EC50 [2]: 100 to 999 nM
Cc1noc(C)c1C(=O)N1C[C@H](OC(C)(C)C)C[C@H]1C(=O)Nc1ccc(-c2cnc(-c3ccc(NC(=O)[C@@H]4C[C@@H](OC(C)(C)C)CN4C(=O)c4c(C)noc4C)cc3)o2)cc1 [XY-72, (2S,4R,2′S,4′R)-N,N′-(1,3-oxazole-2,5-diyldi-4,1-phenylene)bis(4-tert-butoxy-1-((3,5-dimethyl-4-isoxazolyl)carbonyl)-2-pyrrolidinecarboxamide)] |  | EC50 [2]: 100 to 999 nM
O=C(Nc1ccc(-c2nc[nH]c2-c2ccc(NC(=O)[C@@H]3CCCN3C(=O)c3ccc4occc4c3)cc2)cc1)[C@@H]1CCCN1C(=O)c1ccc2occc2c1 [JG-52, (2S,2′S)-N,N′-(1H-imidazole-4,5-diyldi-4,1-phenylene)bis(1-(1-benzofuran-5-ylcarbonyl)-2-pyrrolidinecarboxamide)] | 100 to 999 | 
C[C@H](NC(=O)c1cccc(Cl)n1)C(=O)Nc1ccc(-c2nnc(-c3ccc(NC(=O)[C@H](C)NC(=O)c4cccc(Cl)n4)cc3)o2)cc1 [RK-20, N,N′-(1,3,4-oxadiazole-2,5-diylbis(4,1-phenyleneimino((2S)-1-oxo-1,2-propanediyl)))bis(6-chloro-2-pyridinecarboxamide)] | 1000 to 10000 | 
CC(O)(C(=O)N1CCC[C@H]1C(=O)Nc1ccc(-c2ccc(-c3ccc(NC(=O)[C@@H]4CCCN4C(=O)[C@@](C)(O)c4ccccc4)cc3)o2)cc1)c1ccccc1 (stereo partly drawn) [JG-59, (2S)-1-((2S)-2-hydroxy-2-phenylpropanoyl)-N-(4-(5-(4-((((2S)-1-(2-hydroxy-2-phenylpropanoyl)-2-pyrrolidinyl)carbonyl)amino)phenyl)-2-furyl)phenyl)-2-pyrrolidinecarboxamide] | < 4.57 | 
C[C@@](O)(C(=O)N1CCC[C@H]1C(=O)Nc1ccc(-c2nc[nH]c2-c2ccc(NC(=O)[C@@H]3CCCN3C(=O)[C@@](C)(O)c3ccccc3)cc2)cc1)c1ccccc1 [JG-46, (2S,2′S)-N,N′-(1H-imidazole-4,5-diyldi-4,1-phenylene)bis(1-((2S)-2-hydroxy-2-phenylpropanoyl)-2-pyrrolidinecarboxamide)] | < 4.57 | 
CC(=O)N1CCC[C@H]1C(=O)Nc1ccc(-c2cnc(-c3ccc(NC(=O)[C@@H]4C[C@@H](O)CN4C(=O)OCc4ccccc4)cc3)o2)cc1 [MS-3, benzyl (2S,4R)-2-((4-(5-(4-((((2S)-1-acetyl-2-pyrrolidinyl)carbonyl)amino)phenyl)-1,3-oxazol-2-yl)phenyl)carbamoyl)-4-hydroxy-1-pyrrolidinecarboxylate] | 100 to 999 | 
CCc1ccccc1C(=O)N1C[C@H](O)C[C@H]1C(=O)Nc1ccc(-c2cnc(-c3ccc(NC(=O)[C@@H]4C[C@@H](O)CN4C(=O)c4ccccc4CC)cc3)o2)cc1 [XY-47, (2S,4R,2′S,4′R)-N,N′-(1,3-oxazole-2,5-diyldi-4,1-phenylene)bis(1-(2-ethylbenzoyl)-4-hydroxy-2-pyrrolidinecarboxamide)] |  | EC50 [2]: 100 to 999 nM; EC50 [4]: 564 nM
CO[C@H](C(=O)N1CCC[C@H]1C(=O)Nc1ccc(-c2nc[nH]c2-c2ccc(NC(=O)[C@@H]3CCCN3C(=O)[C@@H](OC)c3ccccc3)cc2)cc1)c1ccccc1 [JG-45, (2S,2′S)-N,N′-(1H-imidazole-4,5-diyldi-4,1-phenylene)bis(1-((2S)-2-methoxy-2-phenylacetyl)-2-pyrrolidinecarboxamide)] | 4.57 to 99 | 
CC1(C(=O)N2CCC[C@H]2C(=O)Nc2ccc(-c3cnc(-c4ccc(NC(=O)[C@@H]5CCCN5C(=O)C5(C)CCC(=O)N5)cc4)o3)cc2)CCC(=O)N1 (stereo partly drawn) [Example D-24, (2S,2′S)-N,N′-(4,4′-(oxazole-2,5-diyl)bis(4,1-phenylene))bis(1-(2-methyl-5-oxopyrrolidine-2-carbonyl)pyrrolidine-2-carboxamide)] |  | EC50 [1]: 1000 to 10000 nM; EC50 (read-out: EC50 1b): 5140 nM
O=C(Nc1ccc(-c2n[nH]nc2-c2ccc(NC(=O)[C@@H]3CCCN3C(=O)Cc3ccccc3)cc2)cc1)[C@@H]1CCCN1C(=O)Cc1ccccc1 [OL-20, (2S,2′S)-N,N′-(1H-1,2,3-triazole-4,5-diyldi-4,1-phenylene)bis[1-(phenylacetyl)-2-pyrrolidinecarboxamide]] | 4.57 to 99 | 
CC1(C)CC(C)(C(=O)N2CCC[C@H]2C(=O)Nc2ccc(-c3cnc(-c4ccc(NC(=O)[C@@H]5CCCN5C(=O)C5(C)CC(C)(C)C(=O)N5)cc4)o3)cc2)NC1=O (stereo partly drawn) [Example D-25, (2S,2′S)-N,N′-(4,4′-(oxazole-2,5-diyl)bis(4,1-phenylene))bis(1-(2,4,4-trimethyl-5-oxopyrrolidine-2-carbonyl)pyrrolidine-2-carboxamide)] |  | EC50 [1]: 1000 to 10000 nM; EC50 (read-out: EC50 1b): 5330 nM
O=C(Nc1ccc(-c2cc(-c3ccc(NC(=O)[C@@H]4C=CCN4C(=O)CC4CCCC4)cc3)[nH]n2)cc1)[C@@H]1C=CCN1C(=O)CC1CCCC1 [OL-39, (2S,2′S)-N,N′-(1H-pyrazole-3,5-diyldi-4,1-phenylene)bis[1-(cyclopentylacetyl)-2,5-dihydro-1H-pyrrole-2-carboxamide]] | 1000 to 10000 | 
C[C@H](NC(=O)OCc1ccccc1)C(=O)Nc1ccc(-c2n[nH]nc2-c2ccc(NC(=O)[C@H](C)NC(=O)OCc3ccccc3)cc2)cc1 [OL-18, [(1S)-1-methyl-2-oxo-2-[[4-[4-[4-[[(2S)-1-oxo-2-[[(phenylmethoxy)carbonyl]amino]propyl]amino]phenyl]-1H-1,2,3-triazol-5-yl]phenyl]amino]ethyl]-carbamic acid, phenylmethyl ester] | 4.57 to 99 | EC50 [4]: 92 nM
O=C(Nc1ccc(-c2nnc(-c3ccc(NC(=O)[C@@H]4CCCN4C(=O)[C@H](O)c4ccccc4)cc3)o2)cc1)[C@@H]1CCCN1C(=O)[C@H](O)c1ccccc1 [RK-16, (2S,2′S)-N,N′-(1,3,4-oxadiazole-2,5-diyldi-4,1-phenylene)bis(1-((2R)-2-hydroxy-2-phenylacetyl)-2-pyrrolidinecarboxamide)] | < 4.57 | EC50 [4]: < 5 nM
CC1(C(=O)N2CCC[C@H]2C(=O)Nc2ccc(-c3cnc(-c4ccc(NC(=O)[C@@H]5CCCN5C(=O)C5(C)CCCN5)cc4)o3)cc2)CCCN1 (stereo partly drawn) [Example D-36, (2S,2′S)-N,N′-(1,3-oxazole-2,5-diyldi-4,1-phenylene)bis(1-((2-methyl-2-pyrrolidinyl)carbonyl)-2-pyrrolidinecarboxamide)] | 1000 to 10000 | 
CN(C)[C@H](C(=O)N1CCC[C@H]1C(=O)Nc1ccc(-c2cnc(-c3ccc(NC(=O)[C@@H]4CCCN4C(=O)[C@H]([C@@H](O)c4ccsc4)N(C)C)cc3)o2)cc1)[C@@H](O)c1ccsc1 [JR-15, (S,S,2S)-N,N′-(4,4′-(oxazole-2,5-diyl)bis(4,1-phenylene))bis(1-((2S,3S)-2-(dimethylamino)-3-hydroxy-3-(thiophen-3-yl)propanoyl)pyrrolidine-2-carboxamide)] |  | EC50 (class symbols, read-out: EC50 Range against HCV 1b): 4.57 to 99 nM
C[C@H](NC(=O)OCc1ccccc1)C(=O)Nc1ccc(-c2nc[nH]c2-c2ccc(NC(=O)[C@H](C)NC(=O)OCc3ccccc3)cc2)cc1 [OL-8, [1H-imidazole-4,5-diylbis[4,1-phenyleneimino[(1S)-1-methyl-2-oxo-2,1-ethanediyl]]]bis-carbamic acid, bis(phenylmethyl) ester] | 4.57 to 99 | 
CN(C)[C@@H](C(=O)N1CCCC1(C)C(=O)N1CCC[C@H]1C(=O)Nc1ccc(-c2cnc(-c3ccc(NC(=O)[C@@H]4CCCN4C(=O)C4(C)CCCN4C(=O)[C@@H](c4ccccc4)N(C)C)cc3)o2)cc1)c1ccccc1 (stereo partly drawn) [Example D-41, (2S,2′S)-N,N′-(1,3-oxazole-2,5-diyldi-4,1-phenylene)bis(1-((1-((2R)-2-(dimethylamino)-2-phenylacetyl)-2-methyl-2-pyrrolidinyl)carbonyl)-2-pyrrolidinecarboxamide)] | 100 to 999 | 
COc1cccc2c(C(=O)N3CCC[C@H]3C(=O)Nc3ccc(-c4nnc(-c5ccc(NC(=O)[C@@H]6CCCN6C(=O)c6nc(Cl)cc7c(OC)cccc67)cc5)o4)cc3)nc(Cl)cc12 [RK-32, (2S,2′S)-N,N′-(1,3,4-oxadiazole-2,5-diyldi-4,1-phenylene)bis(1-((3-chloro-5-methoxy-1-isoquinolinyl)carbonyl)-2-pyrrolidinecarboxamide)] | 100 to 999 | 
CC(=O)N1CCC[C@H]1C(=O)Nc1ccc(-c2nnc(-c3ccc(NC(=O)[C@@H]4CCCN4C(C)=O)cc3)o2)cc1 [Example D-55, (2S,2′S)-N,N′-(1,3,4-oxadiazole-2,5-diyldi-4,1-phenylene)bis[1-acetyl-2-pyrrolidinecarboxamide]] | 1000 to 10000 | EC50 [4]: 10000 nM
CC(=O)N1CCC[C@H]1C(=O)Nc1ccc(-c2cc(-c3ccc(NC(=O)[C@@H]4CCCN4C(C)=O)cc3)[nH]n2)cc1 [OL-29, (2S,2′S)-N,N′-(1H-pyrazole-3,5-diyldi-4,1-phenylene)bis(1-acetyl-2-pyrrolidinecarboxamide)] | 1000 to 10000 | EC50 [4]: 4550 nM
O=C(Nc1ccc(-c2nnc(-c3ccc(NC(=O)[C@@H]4CCCN4C(=O)C4CCC4)cc3)o2)cc1)[C@@H]1CCCN1C(=O)C1CCC1 [Example D-59, (2S,2′S)-N,N′-(1,3,4-oxadiazole-2,5-diyldi-4,1-phenylene)bis[1-(cyclobutylcarbonyl)-2-pyrrolidinecarboxamide]] | 1000 to 10000 | EC50 [4]: 5450 nM
